{"source": "patent US8524917B2", "about": "“6-substituted indole-3-carboxylic acid amide compounds having sphingosine-1-phosphate (S1P) receptor antagonist biological activity” (Allergan, Inc., priority 2007, dated 2013)", "biological_target": "human S1P3 receptor (Homo sapiens (Human), UniProt Q99500)", "sequence (Q99500 whole entry)": "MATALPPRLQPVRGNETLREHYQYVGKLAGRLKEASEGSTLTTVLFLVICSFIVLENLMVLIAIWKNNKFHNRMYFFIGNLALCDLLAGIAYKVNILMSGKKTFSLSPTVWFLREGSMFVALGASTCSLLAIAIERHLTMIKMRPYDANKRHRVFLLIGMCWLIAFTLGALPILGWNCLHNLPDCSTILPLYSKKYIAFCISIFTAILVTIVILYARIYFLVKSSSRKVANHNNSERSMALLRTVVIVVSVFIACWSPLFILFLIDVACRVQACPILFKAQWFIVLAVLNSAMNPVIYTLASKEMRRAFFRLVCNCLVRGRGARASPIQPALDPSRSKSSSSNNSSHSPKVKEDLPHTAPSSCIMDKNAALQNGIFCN", "assay": "Activation or block of activation of human S1P3 receptor, Ca+2 FLIPR assay", "format": "cell-based", "method": "Compounds were assessed for their ability to activate or block activation of the human S1P3 receptor in T24 cells stably expressing the human S1P3 receptor. Ten thousand cells/well were plated into 384-well poly-D-lysine coated plates one day prior to use. The growth media for the S1P3 receptor expressing cell line was McCoy's 5A medium supplemented with 10% charcoal-treated fetal bovine serum (FBS), 1% antibiotic-antimycotic and 400 μg/ml geneticin. On the day of the experiment, the cells were washed twice with Hank's Balanced Salt Solution supplemented with 20 mM HEPES (HBSS/Hepes buffer). […] Extracellular dye was removed by washing the cell plates four times prior to placing the plates in the FLIPR (Fluorometric Imaging Plate Reader, Molecular Devices). Ligands were diluted in HBSS/Hepes buffer and prepared in 384-well microplates. The positive control, Sphingosine-1-Phosphate (S1P), was diluted in HBSS/Hepes buffer with 4 mg/ml fatty acid free bovine serum albumin. The FLIPR transferred 12.5 μl from the ligand microplate to the cell plate and took fluorescent measurements for 75 seconds, taking readings every second, and then for 2.5 minutes, taking readings every 10 seconds. […] IC50 values were determined through a […] analysis using the Levenburg Marquardt algorithm.", "key": {"[1]": {"settings": "T24 cells stably expressing the human S1P3 receptor, FLIPR Ca+2 response, 0.61 nM to 10,000 nM, read-out: S1P3 IC50"}, "[2]": {"settings": "T24 cells stably expressing the human S1P3 receptor, value in brackets"}}, "note": "Like-named read-outs stand apart in the source and are kept apart here."}
{"smiles": "CCOC(=O)c1ccc2c(C(=O)NCc3cccc(F)c3)c(C(C)C)n(Cc3ccccn3)c2c1", "values": [{"measurement": "IC50", "result": 174, "unit": "nM"}, {"measurement": "S1P3 (% inh)", "result": "174 nM (100) %"}]}
{"smiles": "CCCCOC(=O)c1ccc2c(C(=O)NCc3ccc(F)c(F)c3)c(C(C)C)n(Cc3ccccc3)c2c1", "values": [{"measurement": "IC50", "setting": "[1]", "result": 4, "unit": "nM"}, {"measurement": "S1P3 (% inh)", "setting": "[2]", "result": 97, "unit": "%"}]}
{"smiles": "CC(C)c1c(C(=O)NCc2ccc(F)c(F)c2)c2ccc(C(=O)O)cc2n1Cc1ccccc1", "values": [{"measurement": "IC50", "setting": "[1]", "result": "> 10000", "unit": "nM"}, {"measurement": "S1P3 (% inh)", "setting": "[2]", "result": 40, "unit": "%"}]}
{"smiles": "CCC(=O)Oc1ccc2c(C(=O)NCc3ccc(F)c(F)c3)c(C(C)C)n(Cc3ccccc3)c2c1", "note": "[Compound 24, 1-Benzyl-3-(3,4-difluorobenzylcarbamoyl)-2-isopropyl-1H-indol-6-yl Propionate]", "values": [{"measurement": "S1P3 (% inh)", "result": "20 nM (100) %"}, {"measurement": "IC50", "setting": "read-out: S1P3 IC50", "result": 20, "unit": "nM"}]}
{"smiles": "CC(C)c1c(C(=O)NCc2cncc(F)c2)c2ccc(NC3CCCC3)cc2n1Cc1ccccc1", "note": "[Compound 193, 1-Benzyl-6-(cyclopentylamino)-N-((5-fluoropyridin-3-yl)methyl)-2-isopropyl-1H-indole-3-carboxamide]", "values": [{"measurement": "S1P3 (% inh)", "result": "163 nM (100) %"}, {"measurement": "IC50", "setting": "read-out: S1P3 IC50", "result": 163, "unit": "nM"}]}
{"smiles": "CC(C)c1c(C(=O)NCc2ccc(F)c(F)c2)c2ccc(N)cc2n1Cc1ccccc1", "note": "[Compound 125, 6-Amino-1-benzyl-N-(3,4-difluorobenzyl)-2-isopropyl-1H-indole-3-carboxamide]", "values": [{"measurement": "IC50", "setting": "[1]", "result": 1700, "unit": "nM"}, {"measurement": "S1P3 (% inh)", "setting": "[2]", "result": 90, "unit": "%"}]}
{"smiles": "CON=C(C)c1c(C(=O)NCc2ccc(F)c(F)c2)c2ccc(OC(C)C)cc2n1Cc1ccccn1", "note": "(stereo in doubt) [Compound 111, (E)-N-(3,4-Difluorobenzyl)-6-isopropoxy-2-(1-(methoxyimino)ethyl)-1-(pyridin-2-ylmethyl)-1H-indole-3-carboxamide]", "values": [{"measurement": "S1P3 (% inh)", "result": "263 nM (100) %"}, {"measurement": "IC50", "setting": "read-out: S1P3 IC50", "result": 263, "unit": "nM"}]}
{"smiles": "CC(C)c1c(C(=O)NCc2cc(F)cc(F)c2)c2ccc(NC3CCC3)cc2n1Cc1ccccc1", "note": "[Compound 194, 1-Benzyl-6-(cyclobutylamino)-N-(3,5-difluorobenzyl)-2-isopropyl-1H-indole-3-carboxamide]", "values": [{"measurement": "S1P3 (% inh)", "result": "20 nM (100) %"}, {"measurement": "IC50", "setting": "read-out: S1P3 IC50", "result": 20, "unit": "nM"}]}
{"smiles": "CC(C)Oc1ccc2c(C(=O)NCc3ccc(F)c(F)c3)c(C[N+]3(C)CCCC3)n(Cc3ccccn3)c2c1.[I-]", "note": "[Compound 176, 1-((3-(3,4-Difluorobenzylcarbamoyl)-6-isopropoxy-1-(pyridin-2-ylmethyl)-1H-indol-2-yl)methyl)-1-methylpyrrolidinium iodide]", "values": [{"measurement": "IC50", "setting": "[1]", "result": 7600, "unit": "nM"}, {"measurement": "S1P3 (% inh)", "setting": "[2]", "result": 98, "unit": "%"}]}
{"smiles": "CC(C)c1c(C(=O)NCc2ccc(F)c(F)c2)c2ccc(C(=O)N3CCCC3)cc2n1Cc1ccccc1", "values": [{"measurement": "IC50", "result": 170, "unit": "nM"}, {"measurement": "S1P3 (% inh)", "setting": "[2]", "result": "170 nM (100) %"}]}
{"smiles": "CC(C)COc1ccc2c(C(=O)NCc3cncc(F)c3)c(C(C)C)n(Cc3ccccn3)c2c1", "note": "[Compound 149, N-((5-Fluoropyridin-3-yl)methyl)-6-isobutoxy-2-isopropyl-1-(pyridin-2-ylmethyl)-1H-indole-3-carboxamide]", "values": [{"measurement": "IC50", "setting": "[1]", "result": 29, "unit": "nM"}, {"measurement": "S1P3 (% inh)", "setting": "[2]", "result": 100, "unit": "%"}]}
{"smiles": "CCOC(=O)c1ccc2c(C(=O)NCc3ccc(F)c(F)c3)c(C(C)C)n(Cc3cccnc3)c2c1", "note": "[Compound 46, Ethyl 3-(3,4-Difluorobenzylcarbamoyl)-2-isopropyl-1-(pyridin-3-ylmethyl)-1H-indole-6-carboxylate]", "values": [{"measurement": "S1P3 (% inh)", "result": "241 nM (100) %"}, {"measurement": "IC50", "setting": "read-out: S1P3 IC50", "result": 241, "unit": "nM"}]}
{"smiles": "CC(C)Oc1ccc2c(C(=O)NCc3ccc(F)c(F)c3)c(CN3CCCC3)n(Cc3ccccn3)c2c1", "note": "[Compound 175, N-(3,4-Difluorobenzyl)-6-isopropoxy-1-(pyridin-2-ylmethyl)-2-(pyrrolidin-1-ylmethyl)-1H-indole-3-carboxamide]", "values": [{"measurement": "IC50", "setting": "[1]", "result": 1100, "unit": "nM"}, {"measurement": "S1P3 (% inh)", "setting": "[2]", "result": 100, "unit": "%"}]}
{"smiles": "CC(C)c1c(C(=O)NCc2ccc(F)c(F)c2)c2ccc(C3=N[C@@H](C)CO3)cc2n1Cc1cccnc1", "note": "[Compound 82, (S)—N-(3,4-Difluorobenzyl)-2-isopropyl-6-(4-methyl-4,5-dihydrooxazol-2-yl)-1-(pyridin-3-ylmethyl)-1H-indole-3-carboxamide]", "values": [{"measurement": "IC50", "setting": "[1]", "result": 44, "unit": "nM"}, {"measurement": "S1P3 (% inh)", "setting": "[2]", "result": 100, "unit": "%"}]}
{"smiles": "CC(C)c1c(C(=O)NCc2ccc(F)c(F)c2)c2ccc(OC3CCCC3)cc2n1Cc1ccccn1", "values": [{"measurement": "IC50", "setting": "[1]", "result": 3, "unit": "nM"}, {"measurement": "Kb", "setting": "T24 cells stably expressing the human S1P3 receptor, second concentration in the cell, read-out: S1P3 Kb", "result": 4, "unit": "nM"}, {"measurement": "S1P3 (% inh)", "setting": "[2]", "result": 100, "unit": "%"}]}
{"smiles": "CC(C)Oc1ccc2c(C(=O)NCc3cccnc3)c(C(C)C)n(Cc3ccccn3)c2c1", "values": [{"measurement": "S1P3 (% inh)", "setting": "[2]", "result": "ND (98) %"}]}
{"smiles": "CC(C)c1c(C(=O)NCc2ccc(F)c(F)c2)c2ccc(OC3CCC3)cc2n1Cc1cccnc1", "note": "[Compound 165, 6-Cyclobutoxy-N-(3,4-difluorobenzyl)-2-isopropyl-1-(pyridin-3-ylmethyl)-1H-indole-3-carboxamide]", "values": [{"measurement": "IC50", "setting": "[1]", "result": 7, "unit": "nM"}, {"measurement": "S1P3 (% inh)", "setting": "[2]", "result": 100, "unit": "%"}]}
{"smiles": "CC(C)c1c(C(=O)NCc2ccc(F)c(F)c2)c2ccc(NC3=NCCS3)cc2n1Cc1ccccn1", "note": "[Compound 184, N-(3,4-Difluorobenzyl)-6-(4,5-dihydrothiazol-2-ylamino)-2-isopropyl-1-(pyridin-2-ylmethyl)-1H-indole-3-carboxamide]", "values": [{"measurement": "IC50", "setting": "[1]", "result": "> 8300", "unit": "nM"}, {"measurement": "S1P3 (% inh)", "setting": "[2]", "result": 80, "unit": "%"}]}
{"smiles": "CC(C)c1c(C(=O)NCc2ccc(F)c(F)c2)c2ccc(OC(=O)C(C)(C)C)cc2n1Cc1ccccc1", "note": "[Compound 22, 1-Benzyl-3-(3,4-difluorobenzylcarbamoyl)-2-isopropyl-1H-indol-6-yl Pivalate]", "values": [{"measurement": "S1P3 (% inh)", "result": "4 nM (99) %"}, {"measurement": "IC50", "setting": "read-out: S1P3 IC50", "result": 4, "unit": "nM"}]}
{"smiles": "CC(C)c1c(C(=O)NCc2ccc(F)c(F)c2)c2ccc(-c3nnco3)cc2n1Cc1ccccc1", "note": "[Compound 89, 1-Benzyl-N-(3,4-difluorobenzyl)-2-isopropyl-6-(1,3,4-oxadiazol-2-yl)-1H-indole-3-carboxamide]", "values": [{"measurement": "IC50", "setting": "[1]", "result": 59, "unit": "nM"}, {"measurement": "S1P3 (% inh)", "setting": "[2]", "result": 98, "unit": "%"}]}
{"smiles": "COC[C@H]1COC(c2ccc3c(C(=O)NCc4ccc(F)c(F)c4)c(C(C)C)n(Cc4ccccc4)c3c2)=N1", "note": "[Compound 77, (S)-1-Benzyl-N-(3,4-difluorobenzyl)-2-isopropyl-6-(4-(methoxymethyl)-4,5-dihydrooxazol-2-yl)-1H-indole-3-carboxamide]", "values": [{"measurement": "IC50", "setting": "[1]", "result": 46, "unit": "nM"}, {"measurement": "S1P3 (% inh)", "setting": "[2]", "result": 96, "unit": "%"}]}
{"smiles": "CC(C)c1c(C(=O)NCc2ccc(F)c(F)c2)c2ccc(NC3CCCC3)cc2n1Cc1ccccn1", "note": "[Compound 183, 6-(Cyclopentylamino)-N-(3,4-difluorobenzyl)-2-isopropyl-1-(pyridin-2-ylmethyl)-1H-indole-3-carboxamide]", "values": [{"measurement": "IC50", "setting": "[1]", "result": 152, "unit": "nM"}, {"measurement": "S1P3 (% inh)", "setting": "[2]", "result": 100, "unit": "%"}]}
{"smiles": "CC(C)c1c(C(=O)NCc2ccc(F)c(F)c2)c2ccc(OC(=O)N(C)C)cc2n1Cc1ccccc1", "note": "[Compound 21, 1-benzyl-3-(3,4-difluorobenzylcarbamoyl)-2-isopropyl-1H-indol-6-yl Dimethylcarbamate]", "values": [{"measurement": "IC50", "setting": "[1]", "result": 24, "unit": "nM"}, {"measurement": "S1P3 (% inh)", "setting": "[2]", "result": 99, "unit": "%"}]}
{"smiles": "CCOC(=O)c1ccc2c(C(=O)NCc3cncc(F)c3)c(C(C)C)n(Cc3ccccn3)c2c1", "note": "[Compound 49, Ethyl 3-((5-Fluoropyridin-3-yl)methylcarbamoyl)-2-isopropyl-1-(pyridin-2-ylmethyl)-1H-indole-6-carboxylate]", "values": [{"measurement": "IC50", "setting": "[1]", "result": 870, "unit": "nM"}, {"measurement": "S1P3 (% inh)", "setting": "[2]", "result": 100, "unit": "%"}]}
{"smiles": "C#CCNC(=O)c1ccc2c(C(=O)NCc3ccc(F)c(F)c3)c(C(C)C)n(Cc3ccccc3)c2c1", "note": "[Compound 69, 1-Benzyl-N3-(3,4-difluorobenzyl)-2-isopropyl-N6-(prop-2-ynyl)-1H-indole-3,6-dicarboxamide]", "values": [{"measurement": "IC50", "setting": "[1]", "result": 5000, "unit": "nM"}, {"measurement": "S1P3 (% inh)", "setting": "[2]", "result": 98, "unit": "%"}]}
{"smiles": "CC(C)Oc1ccc2c(C(=O)NCc3ccc(F)c(F)c3)c(C(C)C)n(Cc3cccnc3)c2c1", "note": "[Compound 154, N-(3,4-Difluorobenzyl)-6-isopropoxy-2-isopropyl-1-(pyridin-3-ylmethyl)-1H-indole-3-carboxamide]", "values": [{"measurement": "IC50", "setting": "[1]", "result": 15, "unit": "nM"}, {"measurement": "S1P3 (% inh)", "setting": "[2]", "result": 100, "unit": "%"}]}
